From ChEMBL document CHEMBL4422690, “Synthesis of Rosmarinic Acid Amides as Antioxidative and Hypoglycemic Agents” (J Nat Prod, 2019)
pIC50, pKi: −log10 of the molar value.

Columns and labels:
[1] = Inhibition of yeast alpha-glucosidase using pNP-alpha-G as substrate measured after 30 mins; design: species or system Saccharomyces cerevisiae
[2] = Antioxidant activity assessed as DPPH radical scavenging activity incubated for 1.5 hrs under dark condition by spectrometric method; format: functional
[3] = Antioxidant activity assessed as trolox equivalents of AAPH radical scavenging activity at 50 uM preincubated for 10 mins followed by AAPH addition and measured every min for 30 mins by ORAC-FL assay; format: functional
[4] = Mixed-type inhibition of yeast alpha-glucosidase assessed as enzyme-substrate-inhibitor dissociation constant using varying levels of pNP-alpha-G as substrate incubated for 30 mins and measured at 1 min interval for 30 mins by Lineweaver-burk plot analysis; design: species or system Saccharomyces cerevisiae
[5] = Mixed-type inhibition of yeast alpha-glucosidase assessed as […] dissociation constant using varying levels of pNP-alpha-G as substrate incubated for 30 mins and measured at 1 min interval for 30 mins by Lineweaver-burk plot analysis; design: species or system Saccharomyces cerevisiae

SMILES | pIC50 [1] | pIC50 [2] | Activity [3] | pKi [4] | pKi [5]
Cc1ccc(CNC(=O)[C@@H](Cc2ccc(O)c(O)c2)OC(=O)/C=C/c2ccc(O)c(O)c2)cc1 | 3.96 | 5.00 | 2.62 µMequiv/µM | – | –
O=C(/C=C/c1ccc(O)c(O)c1)O[C@H](Cc1ccc(O)c(O)c1)C(=O)O [ROSMARINIC ACID] | 3.87 | 4.96 | 2.1 µMequiv/µM | – | –
O=C(/C=C/c1ccc(O)c(O)c1)O[C@H](Cc1ccc(O)c(O)c1)C(=O)NCc1ccccc1 | 3.96 | 5.09 | 2.79 µMequiv/µM | – | –
C[C@H]1O[C@H](O[C@H]2[C@H](O)[C@@H](O)[C@@H](O[C@H]3[C@H](O)[C@@H](O)C(O)O[C@@H]3CO)O[C@@H]2CO)[C@H](O)[C@@H](O)[C@@H]1N[C@H]1C=C(CO)[C@@H](O)[C@H](O)[C@H]1O (stereo partly drawn) [ACARBOSE] | 3.55 to 3.57 | – | – | – | –
O=c1c(O)c(-c2ccc(O)c(O)c2)oc2cc(O)cc(O)c12 [QUERCETIN] | – | 4.77 to 4.81 | 2.11 to 2.19 µMequiv/µM | – | –
O=C(/C=C/c1ccc(O)c(O)c1)O[C@H](Cc1ccc(O)c(O)c1)C(=O)NCCc1ccc(O)cc1 | 4.13 | 5.15 | 3.28 µMequiv/µM | – | –
CN1CCN(CCNC(=O)[C@@H](Cc2ccc(O)c(O)c2)OC(=O)/C=C/c2ccc(O)c(O)c2)CC1 | 4.45 | 5.01 | 2.77 µMequiv/µM | 4.46 | 4.64
O=C(/C=C/c1ccc(O)c(O)c1)O[C@H](Cc1ccc(O)c(O)c1)C(=O)NCCc1ccccc1 | 4.06 | 4.98 | 3.07 µMequiv/µM | – | –
CC(C)CNC(=O)[C@@H](Cc1ccc(O)c(O)c1)OC(=O)/C=C/c1ccc(O)c(O)c1 | 3.97 | 4.92 | 2.15 µMequiv/µM | – | –
O=C(/C=C/c1ccc(O)c(O)c1)O[C@H](Cc1ccc(O)c(O)c1)C(=O)NCCN1CCCCC1 | 4.27 | 5.00 | 2.84 µMequiv/µM | – | –
CCCCNC(=O)[C@@H](Cc1ccc(O)c(O)c1)OC(=O)/C=C/c1ccc(O)c(O)c1 | 3.97 | 5.08 | 2.72 µMequiv/µM | – | –
CCN(CC)CCCNC(=O)[C@@H](Cc1ccc(O)c(O)c1)OC(=O)/C=C/c1ccc(O)c(O)c1 | 4.37 | 5.05 | 2.81 µMequiv/µM | – | –
CN(C)CCCNC(=O)[C@@H](Cc1ccc(O)c(O)c1)OC(=O)/C=C/c1ccc(O)c(O)c1 | 4.18 | 5.03 | 2.64 µMequiv/µM | – | –
